# Results: patent US12616753B2, “HSP70 inhibitors and methods of using same” (THE WISTAR INSTITUTE, priority 2020, dated 2026)
# How the values were obtained:
# [1] = tested on: MRPS14, NDUFA6, EGFR, AKT, mutant p53; experiment: Western blot of HSP70 client proteins in human tumor cell lines; type: cell-based
# Experimental: Proteins were identified using False Discovery Rate (FDR) values less than 10% and p values less than 0.05. FIG. 3C: Three different melanoma cell lines (WM983B, WM4265, and 1205Lu) were treated with the indicated concentrations of AP-4-139B for 24 hours. Cell lysates were subjected to Western blot analysis, and immunoblotted for NDUFA6, MRPS14, and GAPDH (loading control). FIGS. 3D-3E: HT-29 (FIG. 3D) and LS411N (FIG. 3E) CRC cell lines were treated with the indicated concentrations of PET-16 or AP-4-139B for 48 hours. Cell lysates were subjected to Western blot analysis, and immunoblotted for EGFR, MRPS14, AKT, Cleaved Lamin A (CLA), Cleaved Caspase 3 (CC3), HSP70, HSP90 and GAPDH (loading control). FIG. 3F: HT-29 cells were treated with the indicated concentration of AP-4-139B, Gamitrinib (G-TPP), or VY-3-277 (negative control) for 48 hours. Cell lysates were subjected to Western blot analysis, and immunoblotted for HSP90, AKT, p53, and MRPS14.
# Cell lysates were subjected to Western blot analysis, and immunoblotted for MRPS14, NDUFA6, BAK, COXIV, and GAPDH (loading control).
# Antibodies used were purchased from: p53 (Ab-6) (DO-1, Millipore Sigma), p53 (1C12) (2524S), Cleaved Caspase 3 (9661S), Cleaved Lamin A (2035S), HSP90 (4877S), EGFR (4267S), HMGB1 (6893S), HSP70 (4873S), AKT (9272S), and GAPDH (2218S) (Cell Signaling, Danvers, MA, USA), MRPS14 (ab151118) (Abcam, Cambridge, MA, USA), NDUFA6 (GTX65550) (GeneTex, Irvine, CA, USA), BAK (H-211, sc-7873; Santa Cruz Biotechnology, Inc., Dallas, TX, USA), and HSP70 (C92F3A-5) (Enzo Life Sciences, Farmingdale, NY, USA). 17-AAG (Item No. 11039) and Metformin (Item No. 13118) were purchased from Cayman Chemical (Ann Arbor, MI, USA). Gamitrinib (G-TPP, HY-102007A) was purchased from MedChemExpress (Monmouth Junction, NJ, USA). All HSP70 inhibitors used were generated and confirmed by NMR. PLX-4720 was purchased from Chemietek (Catalog No. CT-P4720; Indianapolis, IN, USA). For in vitro studies, AP-4-139B was dissolved in DMSO. […]
# [2] = tested on: MC38 cells; experiment: Matrigel invasion assay; type: cell-based, mouse; details: low doses, 24 hours
# Experimental: FIG. 24A: MC38 cells were subjected to invasion assays using BioCoat Matrigel transwells in the presence of the indicated concentrations of AP-4-139B. 24 hours later, cells were fixed and stained with Crystal Violet. Shown are representative images taken from 8 random fields of view per well. Scale bar=100 μm. FIG. 24B: Quantification of FIG. 24A *** p<0.001. FIG. 24C: Schematic representation of the metastasis assay. 4×10^5 MC38 cells were injected into the tail vein of 8-10 week old male C57Bl/6 mice. Mice were treated with i.p. injection of 10 mg/kg AP-4-139B every 48 hours. After 3 weeks, the lungs of mice were formalin fixed and H&E stained, and assessed for the presence of metastatic nodules. FIG. 24D: Representative images of lung metastases (black arrows) from C57Bl/6 mice injected with MC38 cells in the tail vein, followed by treatment with vehicle or AP-4-139B. Scale bar=250 μm. FIG. 24E: Quantification of FIG. 24D. n=5 mice per group. * p<0.05.
# Matrigel invasion assays were carried out using 24-well Corning® BioCoat™ Matrigel Invasion Chambers with an 8.0 μm PET membrane (#354480). Transwells were first rehydrated with serum free DMEM for 2 hours at 37° C. […] Number of invaded cells per field (n=8 random fields of view per transwell) were quantified with ImageJSoftware (NIH), normalized to live cells, and expressed as mean±SEM.
smiles,measurement,setting,value
"c1ccc(-c2cn3nc(CCCCCC[P+](c4ccccc4)(c4ccccc4)c4ccccc4)sc3n2)cc1 [AP-4-139B, Triphenyl(6-(6-phenylimidazo[2,1-b][1,3,4]thiadiazol-2-yl)hexyl)phosphonium bromide]","level of HSP70/HSP90 client proteins EGFR, AKT, mutant p53","[1]; HT-29 and LS411N, 48 hours",decreased
same,level of BAK and CoxIV and other mitochondrial proteins,"[1]; colorectal cancer cell lines, IC50, 24 hours",unaffected
same,level of MRPS14 and NDUFA6,[1]; several tumor cell lines,significantly decreased level of MRPS14 and NDUFA6
same,tumor cell migration and invasion,[2],sufficient to inhibit tumor cell migration and invasion
